Results taken from patent US20110306762A1, “ACID ADDITION SALT OF UDENAFIL, PREPARATION METHOD THEREOF AND PHARMACEUTICAL COMPOSITION COMPRISING THE SAME” (priority 2009, published 2011).

Experiments:
[1] = Hygroscopicity test of acid addition salts of Udenafil; format: physicochemical; conditions: exposed for 2 hours, room temperature, relative humidity 43%
[2] = Crystallinity test of acid addition salts of Udenafil; format: physicochemical; parameters: key: ◯: Formation of crystal; X: No formation of crystal; conditions: for Crystallinity test 1-2: crystallization: whether crystallization occurs after dissolving the salt in a suitable solvent; for Crystallinity test 1-1: detecting whether the crystal is formed in the reaction solution
Protocol: The acid addition salts of Udenafil obtained in Examples 1 to 6 and Comparative Examples were tested for crystallinity and hygroscopicity as follows.
1) detecting whether the crystal is formed in the reaction solution, and
2) crystallization: detecting whether crystallization occurs after dissolving acid addition salt of Udenafil in a suitable solvent.

[3] = Solubility test in distilled water by HPLC; format: physicochemical
Description: To test the solubility of the acid addition salts of Udenafil in distilled water, the following experiments were preformed.
The analysis conditions for HPLC were as follows:
Detector: ultraviolet ray absorbance measured at wavelength 292 nm
Column: octadecyl silica gel C18 (4.6×150 mm, 5 μm)
Mobile phase: an aqueous solution of potassium dihydrogenphosphate (0.02M):acetonitrile=70:30

PDE-5 = PDE-5 (Homo sapiens, UniProt O76074); conditions: compared with the conventional compounds; cited from earlier work
[4] = in vivo; cited from earlier work

| Compound | Crystallinity test 1-2 [2] | Crystallinity test 1-1 [2] | also measured |
| --- | --- | --- | --- |
| CC1(C)C2CCC1(CS(=O)(=O)O)C(=O)C2.CCCOc1ccc(S(=O)(=O)NCCC2CCCN2C)cc1-c1nc2c(CCC)nn(C)c2c(=O)[nH]1 (centres unmarked) [Example 3, Camphorsulfonic Acid Addition Salt of Udenafil] | ◯ | ◯ | Hygroscopicity (weight change ratio, %) [1]: 0.7%; solubility in the distilled water [3]: remarkably excellent solubility; Average of measured peak area ([3]; HPLC, UV 292 nm): 7,142,473; First measured peak area ([3]; HPLC, UV 292 nm): 7,141,140; second measured peak area ([3]; HPLC, UV 292 nm): 7,127,027; third measured peak area ([3]; HPLC, UV 292 nm): 7,158,961 |
| CCCOc1ccc(S(=O)(=O)NCCC2CCCN2C)cc1-c1nc2c(CCC)nn(C)c2c(=O)[nH]1 (centres unmarked) [Udenafil, 5-[2-propyloxy-5-(1-methyl-2-pyrrolidinyleneamidosulfonyl)phenyl]-1-methyl-propyl-1,6-dihydro-7H-pyrazolo(4,3-d)pyrimidine-7-one] | – | – | selectivity to PDE-5 (PDE-5): notably higher selectivity; solubility in the distilled water [3]: hardly dissolved; detection in the distilled water ([3]; HPLC): not detected; half-life [4]: 12 h; time to maximum peak plasma concentration [4]: 1 h |
| N[C@@H](CC(=O)O)C(=O)O [aspartic acid] | X | X | – |
| O=C(O)CC(O)(CC(=O)O)C(=O)O [citric acid] | X | X | – |
| O=CO [formic acid] | X | X | – |
| O=C(O)/C=C/C(=O)O [fumaric acid] | X | X | – |
| N[C@@H](CCC(=O)O)C(=O)O [glutamic acid] | X | X | – |
| O=C(O)CCCC(=O)O [glutaric acid] | X | X | – |
| O=C(O)CNC(=O)c1ccccc1 [hippuric acid] | X | X | – |
| CC(O)C(=O)O (centres unmarked) [lactic acid] | X | X | – |
| O=C(O)/C=C\C(=O)O [maleci acid] | X | X | – |
| O=C(O)/C=C\C(=O)O [maleic acid] | X | X | – |
| O=C(O)CC(=O)O [malonic acid] | X | X | – |
| O=C(O)CCC(=O)O [succinic acid] | X | X | – |
| O=C(O)C(O)C(O)C(=O)O (centres unmarked) [tartaric acid] | X | X | – |
| Adipic Acid Addition Salt of Udenafil [Example 5] | ◯ | ◯ | – |
| Benzenesulfonic Acid Addition Salt of Udenafil [Example 2] | ◯ | ◯ | – |
| Cinnamic Acid Addition Salt of Udenafil [Example 4] | ◯ | ◯ | – |
| Oxalic Acid Addition Salt of Udenafil [Example 1] | ◯ | ◯ | – |
